From patent US9012655B2, “Antimicrobial/adjuvant compounds and methods” (Denouamed, Inc., priority 2011, dated 2015)

Key:
Type in all cases: cell-based
Bacillus cereus NCTC6349 = test: MIC panel of challenge pathogens (CLSI); conditions: Bacillus cereus NCTC6349
Procedure: (§1) The inocula for each bacterial strain were prepared by picking 5-10 distinct colonies from the culture plates and suspending them in the appropriate broth as per Clinical and Laboratory Standards Institute (CLSI) guidelines M07-A8, M24-A or M11-A7 as appropriate. The inoculum was resuspended by vigorous shaking on a vortex mixer for 15 s. The turbidity was then adjusted to McFarland standard 0.5 ([…]). The inoculum was further diluted in the appropriate media for MIC tests to give a final inoculum in each well of 2-8×10^5 CFU/ml. MICs were tested in the appropriate broth in accordance with the appropriate CLSI guidelines.
(§2) A stock solution of each compound was prepared at a concentration of 1.28 g/L in DMSO. The stock was further diluted in the appropriate media to give a top starting concentration of 128 mg/L in the assay. 100 μL of the appropriate media, as per CLSI guidelines, was dispensed into each well in columns 2-12. 200 μL of the each compound solution (at 256 mg/L) was dispensed into each well in column 1. 100 μL aliquots were pipetted from column 1 wells and dispensed into column 2 with a multichannel pipette (±2% coefficient of variation) thus diluting two-fold. 100 μL samples were then pipetted from column 2 wells and dispensed into column 3. The process was repeated through to column 10. The final 100 μL of diluted drug from column 10 was then discarded. Row 11 acted as a positive control (no compound, but organisms added), Row 12 acted as a negative control (no compound, and no organisms added).
(§3) 100 μL of the appropriate inoculum suspension in the appropriate media, as per CLSI guidelines, was added to the appropriate wells. […] All plates were incubated in the dark under aerobic or anaerobic conditions at 30-37° C. for 24-48 hours, according to the appropriate CLSI guideline. Plates were read visually 24-48 hours post inoculation. Endpoints of 100% inhibition were determined (CLSI interpretation endpoints following visual examination).
(§4) MIC50, MIC80, and 100% inhibition results are reported below in μg/mL in the following Tables, indicating each compound tested against a given species and strain: […]

[1] = system: Staphylococcus aureus EUP MRSA004; test: MIC panel of challenge pathogens (CLSI); conditions: EUPMRSA004, Staphylococcus aureus EUP MRSA004
Procedure: as §1, §2, §3, §4

[2] = system: Enterococcus faecium ATCC700221; test: MIC panel of challenge pathogens (CLSI); conditions: Enterococcus faecium ATCC700221
Procedure: as §1, §2, §3, §4

[3] = system: Staphylococcus epidermidis NRS7; test: MIC panel of challenge pathogens (CLSI); conditions: Staphylococcus epidermidis NRS7
Procedure: as §1, §2, §3, §4

[4] = system: Staphylococcus aureus NRS2 (ATCC700698); test: MIC panel of challenge pathogens (CLSI); conditions: Staphylococcus aureus NRS2 (ATCC700698)
Procedure: as §1, §2, §3, §4

[5] = system: Staphylococcus aureus NRS1 (ATCC700699); test: MIC panel of challenge pathogens (CLSI); conditions: Staphylococcus aureus NRS1 (ATCC700699)
Procedure: as §1, §2, §3, §4

[6] = system: Staphylococcus aureus NRS382; test: MIC panel of challenge pathogens (CLSI); conditions: Staphylococcus aureus NRS382
Procedure: as §1, §2, §3, §4

[7] = system: Staphylococcus epidermidis NRS122; test: MIC panel of challenge pathogens (CLSI); conditions: Staphylococcus epidermidis NRS122
Procedure: as §1, §2, §3, §4

[8] = system: Staphylococcus aureus EUP SAU040; test: MIC panel of challenge pathogens (CLSI); conditions: EUPSAU040, Staphylococcus aureus EUP SAU040
Procedure: as §1, §2, §3, §4

[9] = system: Staphylococcus aureus AUR59 7005; test: MIC panel of challenge pathogens (CLSI); conditions: AUR597005, Staphylococcus aureus AUR59 7005
Procedure: as §1, §2, §3, §4

[10] = system: Staphylococcus aureus EUP MRSA002; test: MIC panel of challenge pathogens (CLSI); conditions: EUPMRSA002, Staphylococcus aureus EUP MRSA002
Procedure: as §1, §2, §3, §4

[11] = system: Staphylococcus aureus AUR58 7005; test: MIC panel of challenge pathogens (CLSI); conditions: AUR587005, Staphylococcus aureus AUR58 7005
Procedure: as §1, §2, §3, §4

[12] = system: Staphylococcus aureus NRS384; test: MIC panel of challenge pathogens (CLSI); conditions: Staphylococcus aureus NRS384
Procedure: as §1, §2, §3, §4

[13] = system: Staphylococcus aureus AUR60 7005; test: MIC panel of challenge pathogens (CLSI); conditions: AUR607005, Staphylococcus aureus AUR60 7005
Procedure: as §1, §2, §3, §4

[14] = system: Staphylococcus aureus ATCC43300; test: MIC panel of challenge pathogens (CLSI); conditions: Staphylococcus aureus ATCC43300
Procedure: as §1, §2, §3, §4

[15] = system: Enterococcus faecalis ATCC29212; test: MIC panel of challenge pathogens (CLSI); conditions: Enterococcus faecalis ATCC29212
Procedure: as §1, §2, §3, §4

[16] = system: Staphylococcus aureus AUR131 007035; test: MIC panel of challenge pathogens (CLSI); conditions: AUR131007035, Staphylococcus aureus AUR131 007035
Procedure: as §1, §2, §3, §4

E. coli D22 = test: MIC, NCCLS M7-A6 broth microdilution, E. coli D22; conditions: Escherichia coli, D22, 16 to 20 h, 35 degrees Celsius
Procedure: Susceptibilities to the compounds were determined using the National Committee for Clinical Laboratory Standards (NCCLS) M7-A6 broth microdilution method. Cation-adjusted Mueller-Hinton broth (Ca^2+, 25 μg/mL; Mg^2+, 12.5 μg/mL) microdilution panels were prepared to contain antimicrobial doubling dilution concentrations of an appropriate range. DMSO (dimethylsulfoxide) controls were incorporated into the panel to mimic the quantity of DMSO used in dissolving some of the compounds at the higher concentrations. Each final panel well volume was 100 μL with a bacterial inoculum of 5×10^5 CFU (colony forming units)/mL of the relevant bacterium. Panels were read following 16 to 20 h of incubation at 35 degrees Celsius in ambient air. The MIC (minimum inhibitory concentration) was defined as the lowest concentration of antimicrobial inhibiting visible growth.

Fc1ccc(-c2cc(-c3nnn[nH]3)sc2-c2ccc(F)c3ccccc23)c2ccccc12 [DNM0537, 5-(4,5-Bis(4-fluoronaphthalen-1-yl)thiophen-2-yl)-1H-tetrazole]
0.5 µg/mL: MIC50 ([1]; read-out: MIC50 (50%)) | MIC ([2]; read-out: 100% inhibition) | MIC50 ([2]; read-out: MIC50 (50%)) | MIC80 ([2]; read-out: MIC80 (80%)) | MIC50 ([3]; read-out: MIC50 (50%)) | MIC50 ([14]; read-out: MIC50 (50%)) | MIC50 ([15]; read-out: MIC50 (50%))
4 µg/mL: MIC ([7]; read-out: 100% inhibition) | MIC50 ([7]; read-out: MIC50 (50%)) | MIC80 ([7]; read-out: MIC80 (80%))
1 µg/mL: MIC ([1]; read-out: 100% inhibition) | MIC80 ([1]; read-out: MIC80 (80%)) | MIC ([3]; read-out: 100% inhibition) | MIC80 ([3]; read-out: MIC80 (80%)) | MIC ([4]; read-out: 100% inhibition) | MIC50 ([4]; read-out: MIC50 (50%)) | MIC80 ([4]; read-out: MIC80 (80%)) | MIC ([8]; read-out: 100% inhibition) | MIC50 ([8]; read-out: MIC50 (50%)) | MIC80 ([8]; read-out: MIC80 (80%)) | MIC ([10]; read-out: 100% inhibition) | MIC50 ([10]; read-out: MIC50 (50%)) | MIC80 ([10]; read-out: MIC80 (80%)) | MIC ([14]; read-out: 100% inhibition) | MIC80 ([14]; read-out: MIC80 (80%)) | MIC ([15]; read-out: 100% inhibition) | MIC80 ([15]; read-out: MIC80 (80%))
≤ 0.25 µg/mL: MIC (Bacillus cereus NCTC6349; read-out: 100% inhibition) | MIC50 (Bacillus cereus NCTC6349; read-out: MIC50 (50%)) | MIC80 (Bacillus cereus NCTC6349; read-out: MIC80 (80%)) | MIC ([5]; read-out: 100% inhibition) | MIC50 ([5]; read-out: MIC50 (50%)) | MIC80 ([5]; read-out: MIC80 (80%)) | MIC ([6]; read-out: 100% inhibition) | MIC50 ([6]; read-out: MIC50 (50%)) | MIC80 ([6]; read-out: MIC80 (80%)) | MIC ([9]; read-out: 100% inhibition) | MIC50 ([9]; read-out: MIC50 (50%)) | MIC80 ([9]; read-out: MIC80 (80%)) | MIC ([11]; read-out: 100% inhibition) | MIC50 ([11]; read-out: MIC50 (50%)) | MIC80 ([11]; read-out: MIC80 (80%)) | MIC ([12]; read-out: 100% inhibition) | MIC50 ([12]; read-out: MIC50 (50%)) | MIC80 ([12]; read-out: MIC80 (80%)) | MIC ([13]; read-out: 100% inhibition) | MIC50 ([13]; read-out: MIC50 (50%)) | MIC80 ([13]; read-out: MIC80 (80%)) | MIC ([16]; read-out: 100% inhibition) | MIC50 ([16]; read-out: MIC50 (50%)) | MIC80 ([16]; read-out: MIC80 (80%))
125 µM: MIC (E. coli D22)
